Data reported in patent US10744457B2, “Electrochemical separator” (Hamilton Sundstrand Corporation, priority 2017, dated 2020).

Assay: susceptibility to oxidation in the presence of free oxygen
Type: physicochemical
Details: inferred from redox potential
Source text: Another example would be an anthraquinone functionalized with sulfonate groups, such as 2,7 anthraquinone disulfonic acid. The 1,2 benzoquinone disulfonic acid has a higher reduction-oxidation potential than anthraquinone (approximately 0.8V versus 0.2V, as determined against a reversible hydrogen electrode).

O=C1c2ccc(S(=O)(=O)O)cc2C(=O)c2cc(S(=O)(=O)O)ccc21 [2,7 anthraquinone disulfonic acid]
oxidation in the presence of oxygen: more susceptible to oxidation in the presence of free oxygen
